Experimental data published in PubChem BioAssay AID1259407 (Chemical Carcinogenesis Research Information System (CCRIS), 2018).
Active and inactive are the calls of the source. No rule for the calls is given here.

System: CCRIS mutagenicity, Ames/micronucleus/aberration tests
Assay: CCRIS mutagenicity studies
[1] = Test System: AMES SALMONELLA TYPHIMURIUM, Strain/Indicator: TA98, Metabolic Activation: NONE, Method: PREINCUBATION
[2] = Test System: AMES SALMONELLA TYPHIMURIUM, Strain/Indicator: TA100, Metabolic Activation: NONE, Method: PREINCUBATION

c1cc2c3c(c1)ccc1cccc(c13)C1OC21 (stereo not given)
mutagenic call (Test System: CHINESE HAMSTER OVARY, Strain/Indicator: CHO (HGPRT)/6-THIOGUANINE, Metabolic Activation: NONE, Method: STANDARD PLATE): active; positive
mutagenic call (Test System: CHINESE HAMSTER OVARY, Strain/Indicator: CHO (HGPRT)/6-THIOGUANINE, Metabolic Activation: RAT, LIVER, S-9, AROCLOR 1254, Method: STANDARD PLATE): inactive; negative
mutagenic call (Test System: UDS RODENT HEPATOCYTES, Strain/Indicator: THY INCORP, Metabolic Activation: NONE, Method: AUTORADIOGRAPHY): active; positive

CNc1c(C)cc2ncccc2c1N
mutagenic call [1]: inactive; negative
mutagenic call (Test System: AMES SALMONELLA TYPHIMURIUM, Strain/Indicator: TA98, Metabolic Activation: RAT, LIVER, S-9, AROCLOR 1254, Method: PREINCUBATION): inactive; negative
mutagenic call [2]: inactive; negative
mutagenic call (Test System: AMES SALMONELLA TYPHIMURIUM, Strain/Indicator: TA100, Metabolic Activation: RAT, LIVER, S-9, AROCLOR 1254, Method: PREINCUBATION): inactive; negative

CC(CC(=O)O)C(=O)O (stereo not given)
mutagenic call (Test System: AMES SALMONELLA TYPHIMURIUM, Strain/Indicator: TA97, Metabolic Activation: HAMSTER, LIVER, S-9, AROCLOR 1254 (10%), Method: PREINCUBATION): inactive; negative
mutagenic call (Test System: AMES SALMONELLA TYPHIMURIUM, Strain/Indicator: TA97, Metabolic Activation: HAMSTER, LIVER, S-9, AROCLOR 1254 (30%), Method: PREINCUBATION): inactive; negative
mutagenic call (Test System: AMES SALMONELLA TYPHIMURIUM, Strain/Indicator: TA97, Metabolic Activation: NONE, Method: PREINCUBATION): inactive; negative
mutagenic call (Test System: AMES SALMONELLA TYPHIMURIUM, Strain/Indicator: TA97, Metabolic Activation: RAT, LIVER, S-9, AROCLOR 1254 (10%), Method: PREINCUBATION): inactive; negative
mutagenic call (Test System: AMES SALMONELLA TYPHIMURIUM, Strain/Indicator: TA97, Metabolic Activation: RAT, LIVER, S-9, AROCLOR 1254 (30%), Method: PREINCUBATION): inactive; negative
mutagenic call (Test System: AMES SALMONELLA TYPHIMURIUM, Strain/Indicator: TA98, Metabolic Activation: HAMSTER, LIVER, S-9, AROCLOR 1254 (10%), Method: PREINCUBATION): inactive; negative
mutagenic call (Test System: AMES SALMONELLA TYPHIMURIUM, Strain/Indicator: TA98, Metabolic Activation: HAMSTER, LIVER, S-9, AROCLOR 1254 (30%), Method: PREINCUBATION): inactive; negative
mutagenic call [1]: inactive; negative
mutagenic call (Test System: AMES SALMONELLA TYPHIMURIUM, Strain/Indicator: TA98, Metabolic Activation: RAT, LIVER, S-9, AROCLOR 1254 (10%), Method: PREINCUBATION): inactive; negative
mutagenic call (Test System: AMES SALMONELLA TYPHIMURIUM, Strain/Indicator: TA98, Metabolic Activation: RAT, LIVER, S-9, AROCLOR 1254 (30%), Method: PREINCUBATION): inactive; negative
mutagenic call (Test System: AMES SALMONELLA TYPHIMURIUM, Strain/Indicator: TA100, Metabolic Activation: HAMSTER, LIVER, S-9, AROCLOR 1254 (10%), Method: PREINCUBATION): inactive; negative
mutagenic call (Test System: AMES SALMONELLA TYPHIMURIUM, Strain/Indicator: TA100, Metabolic Activation: HAMSTER, LIVER, S-9, AROCLOR 1254 (30%), Method: PREINCUBATION): inactive; negative
mutagenic call [2]: inactive; negative
mutagenic call (Test System: AMES SALMONELLA TYPHIMURIUM, Strain/Indicator: TA100, Metabolic Activation: RAT, LIVER, S-9, AROCLOR 1254 (10%), Method: PREINCUBATION): inactive; negative
mutagenic call (Test System: AMES SALMONELLA TYPHIMURIUM, Strain/Indicator: TA100, Metabolic Activation: RAT, LIVER, S-9, AROCLOR 1254 (30%), Method: PREINCUBATION): inactive; negative
mutagenic call (Test System: AMES SALMONELLA TYPHIMURIUM, Strain/Indicator: TA1535, Metabolic Activation: HAMSTER, LIVER, S-9, AROCLOR 1254 (10%), Method: PREINCUBATION): inactive; negative
mutagenic call (Test System: AMES SALMONELLA TYPHIMURIUM, Strain/Indicator: TA1535, Metabolic Activation: HAMSTER, LIVER, S-9, AROCLOR 1254 (30%), Method: PREINCUBATION): inactive; negative
mutagenic call (Test System: AMES SALMONELLA TYPHIMURIUM, Strain/Indicator: TA1535, Metabolic Activation: NONE, Method: PREINCUBATION): inactive; negative
mutagenic call (Test System: AMES SALMONELLA TYPHIMURIUM, Strain/Indicator: TA1535, Metabolic Activation: RAT, LIVER, S-9, AROCLOR 1254 (10%), Method: PREINCUBATION): inactive; negative
mutagenic call (Test System: AMES SALMONELLA TYPHIMURIUM, Strain/Indicator: TA1535, Metabolic Activation: RAT, LIVER, S-9, AROCLOR 1254 (30%), Method: PREINCUBATION): inactive; negative
mutagenic call (Test System: AMES SALMONELLA TYPHIMURIUM, Strain/Indicator: TA1537, Metabolic Activation: HAMSTER, LIVER, S-9, AROCLOR 1254 (30%), Method: PREINCUBATION): inactive; negative
mutagenic call (Test System: AMES SALMONELLA TYPHIMURIUM, Strain/Indicator: TA1537, Metabolic Activation: NONE, Method: PREINCUBATION): inactive; negative
mutagenic call (Test System: AMES SALMONELLA TYPHIMURIUM, Strain/Indicator: TA1537, Metabolic Activation: RAT, LIVER, S-9, AROCLOR 1254 (30%), Method: PREINCUBATION): inactive; negative

O=C(O)CCSCCC(=O)O
mutagenic call (Test System: Ames Salmonella typhimurium, Strain/Indicator: TA98, Metabolic Activation: None, Method: Preincubation): inactive; negative
mutagenic call (Test System: Ames Salmonella typhimurium, Strain/Indicator: TA98, Metabolic Activation: Rat, Liver, S-9, Phenobarbital and 5,6-benzoflavone, Method: Preincubation): inactive; negative
mutagenic call (Test System: Ames Salmonella typhimurium, Strain/Indicator: TA100, Metabolic Activation: None, Method: Preincubation): inactive; negative
mutagenic call (Test System: Ames Salmonella typhimurium, Strain/Indicator: TA100, Metabolic Activation: Rat, Liver, S-9, Phenobarbital and 5,6-benzoflavone, Method: Preincubation): inactive; negative
mutagenic call (Test System: Ames Salmonella typhimurium, Strain/Indicator: TA1535, Metabolic Activation: None, Method: Preincubation): inactive; negative
mutagenic call (Test System: Ames Salmonella typhimurium, Strain/Indicator: TA1535, Metabolic Activation: Rat, Liver, S-9, Phenobarbital and 5,6-benzoflavone, Method: Preincubation): inactive; negative
mutagenic call (Test System: Ames Salmonella typhimurium, Strain/Indicator: TA1537, Metabolic Activation: None, Method: Preincubation): inactive; negative
mutagenic call (Test System: Ames Salmonella typhimurium, Strain/Indicator: TA1537, Metabolic Activation: Rat, Liver, S-9, Phenobarbital and 5,6-benzoflavone, Method: Preincubation): inactive; negative
mutagenic call (Test System: E. coli, Strain/Indicator: WP2uvrA/pKM101, Metabolic Activation: None, Method: Preincubation): inactive; negative
mutagenic call (Test System: E. coli, Strain/Indicator: WP2uvrA/pKM101, Metabolic Activation: Rat, Liver, S-9, Phenobarbital and 5,6-benzoflavone, Method: Preincubation): inactive; negative
